Values belong to the molecule of their own block, whether it stands above or below them.
Assays:
[1] = tested on: human developing cerebral cortex organoids; experiment: Toxin screening of BPA in the 12-well culture system, proliferation of neuronal precursor cells; format: cell-based; conditions: different concentrations of BPA
Procedure: Culture conditions were systemically tested to optimize protocols. Additionally, screening was performed to test the effects of Bisphenol A (BPA) on neurogenesis in the organoid system.
Toxin screening was performed using the 12-well culture system. Images of the effect of different concentrations of BPA on human developing cerebral cortex organoids were taken (data not shown).

forebrain organoids [2] = experiment: Long-term BPA treatment of forebrain organoids (days 14 to 28), relative VZ thickness; format: cell-based, human; conditions: treatment from days 14 to 28; forebrain organoids in SpinΩ
Procedure: (§1) The apparent homogeneity of forebrain organoids, small volume per condition, and multi-well format of SpinΩ comprise a platform that is amenable to chemical compound testing. As a proof of principle, we tested the effect of Bisphenol A (BPA), which is commonly found in household plastic products and is known to affect rodent neural development.
Forebrain organoids were grown using the protocol described above. For the long-term BPA treatment experiment, forebrain organoids at day 14 from the same batch were distributed randomly into separate wells within SpinQ and treated with different concentrations of BPA (Sigma). BPA was dissolved in sequential dilutions in differentiation media with 0.05% methanol, which was also added in the control condition. Media containing BPA was replaced every other day until analysis on day 28. […] Quantification was conducted by investigators blind to culture conditions.
Organoids grown from the “intrinsic protocol” and forebrain protocol were immunostained for SOX2, TUJ1 and CTIP2 at days 14 and 28. […] The length for VZ and outer layer was measured in ImageJ™ software. […] Relative thicknesses for VZ, SVZ and CP were calculated by the ratio to total thickness from ventricular to pial surface.

[3] = tested on: NPCs in forebrain organoids; experiment: Acute BPA treatment of forebrain organoids (24 hr), EdU pulse-labeling and PH3 immunostaining; format: cell-based, human; conditions: acute treatment with higher BPA concentrations for 24 hr
Procedure: as §1
For the acute BPA treatment experiment, forebrain organoids were grown to day 28 and treated with corresponding concentrations of BPA for 24 hr. At day 29, the culture media was replaced with fresh media and washed 3 times to remove residual BPA. Organoids were then pulsed with 10 μM EdU for 2 hr. The media was then replaced and organoids were washed 3 times with fresh media. At day 30, organoids were fixed for immunohistochemistry and EdU detection using Click-iT® EdU Alexa Fluor® 488 Imaging Kit (ThermoFisher C10337) according to the manufacturer's manual, followed by immunostaining for SOX2 and PH3. Images were acquired with a Zeiss' LSM 700 Confocal system at 25× magnification. Quantification was performed by counting the number of EdU and PH3+ nuclei within SOX2+ ventricular structures that were defined by neural tube-like morphology. EdU and PH3 densities were normalized to the area of ventricular structures measured in ImageJ software. Quantification was conducted by investigators blind to culture conditions.

forebrain organoids [4] = experiment: Signaling-molecule treatment of embryoid bodies during the Matrigel stage, activated caspase-3 (CAS3) immunostaining; format: cell-based, human; conditions: for number of CAS3+ cells at day 14: combined treatment with the three factors CHIR99021, WNT3A and SB-431542 during the Matrigel stage
Description: To reduce tissue heterogeneity, we pre-patterned embryoid bodies to the fate of a specific brain region. We first treated human iPSCs with dual SMAD inhibitors (dorsomorphin and A-83) for 7 days and then embedded embryoid bodies in Matrigel for another 7 days, followed by Matrigel removal and spinning in SpinΩ (FIG. 12). Compared to the “intrinsic protocol,” we could reliably generate organoids from multiple iPSC lines with reduced heterogeneity in organoid shape and size (data not shown). However, there was significant cell death within organoids, as shown by activated caspase-3 (CAS3) immune-staining (data not shown). We then tested combinations of different signaling molecules for various durations. […] Later, we determined that the WNT3A contribution was minimal, likely because WNT3A and CHIR99021 activate the same downstream signaling pathway (data not shown). At day 14, well-defined polarized neuroepithelium-like structures resembled neural tubes, with a nearly pure population of NESTIN+SOX2+ NPCs and expression of adherent junction markers (b-CATENIN and PKC1) and proliferation marker phosphohistone H3 (PH3) near the ventricular surface (data not shown). […] Upon spinning in SpinΩ, organoids developed into multi-layer stratified structures, composed of SOX2+NPCs, TBR2+ intermediate progenitor cells (IPCs), and CTIP2+ neurons (data not shown). With a small volume, it became affordable to supplement media with growth factors at later stages (data not shown).
To generate forebrain-specific organoids, human iPSC colonies were detached 7 days after passage with Collagenase Type IV, washed with fresh stem cell medium and cultured in a 15 ml conical tube. On day 1, detached and washed iPSC colonies were transferred to an Ultra-Low attachment 6-well plate (Corning Costar), containing 3 ml of stem cell medium (without FGF-2), plus 2 μM Dorsomorphine (Sigma) and 2 μM A83-01 (Tocris). On days 5-6, half of the medium was replaced with induction medium consisting of DMEM:F12, 1×N2 Supplement (Invitrogen), 10 μg/ml Heparin (Sigma), 1× Penicillin/Streptomycin, 1× Non-essential Amino Acids, 1× Glutamax, 4 ng/ml WNT-3A (R&D Systems), 1 μM CHIR99021 (Cellagentech), and 1 μM SB-431542 (Cellagentech). On day 7, organoids were embedded in Matrigel (BD Biosciences) and continued to grow in induction medium for 6 more days. On day 14, embedded organoids were mechanically dissociated from Matrigel by pipetting up and down onto the plate with a 5 ml pipette tip. Typically, 10-20 organoids were transferred to each well of a 12-well spinning bioreactor (FIGS. 1-11) containing differentiation medium, consisting of DMEM:F12, 1×N2 and B27 Supplements (Invitrogen), 1× Penicillin/Streptomycin, 1×2-Mercaptoenthanol, 1× Non-essential Amino Acids, 2.5 μg/ml Insulin (Sigma). […]

- relative VZ thickness at day 28 (forebrain organoids [2]): dose-dependent decrease
- density of PH3+ NPCs [3]: decreased density
- density of EdU+ NPCs ([3]; then EdU pulse): decreased density
Molecule: CC(C)(c1ccc(O)cc1)c1ccc(O)cc1 [BPA, Bisphenol A]
- proliferation rate of neuronal precursor cells in human organoids [1]: dose-dependent effect

Molecule: Cc1c[nH]c(-c2cnc(NCCNc3ccc(C#N)cn3)nc2-c2ccc(Cl)cc2Cl)n1 [CHIR99021]
- number of CAS3+ cells at day 14 (forebrain organoids [4]): drastically reduced

Molecule: NC(=O)c1ccc(-c2nc(-c3ccc4c(c3)OCO4)c(-c3ccccn3)[nH]2)cc1 [SB-431542]
- number of CAS3+ cells at day 14 (forebrain organoids [4]): drastically reduced

B1: WNT3A: recombinant WNT3A protein (protein, UniProt P56704 19-352, looked up)
Protein Wnt-3a: SYPIWWSLAVGPQYSSLGSQPILCASIPGLVPKQLRFCRNYVEIMPSVAEGIKIGIQECQHQFRGRRWNCTTVHDSLAIFGPVLDKATRESAFVHAIASAGVAFAVTRSCAEGTAAICGCSSRHQGSPGKGWKWGGCSEDIEFGGMVSREFADARENRPDARSAMNRHNNEAGRQAIASHMHLKCKCHGLSGSCEVKTCWWSQPDFRAIGDFLKDKYDSASEMVVEKHRESRGWVETLRPRYTYFKVPTERDLVYYEASPNFCEPNPETGSFGTRDRTCNVSSHGIDGCDLLCCGRGHNARAERRREKCRCVFHWCCYVSCQECTRVYDVHTCK
- number of CAS3+ cells at day 14 (forebrain organoids [4]): drastically reduced
- contribution to the reduction of CAS3+ cells (forebrain organoids [4]; within the three-factor treatment, WNT3A and CHIR99021 activate the same downstream pathway): minimal
